In article PMC6494957 (Frontiers in Microbiology, 2019):

Columns and labels:
[1] = test system: P. aeruginosa PA01; experiment: MIC broth microdilution and checkerboard; assay type: cell-based, Pseudomonas aeruginosa
Experimental: (§1) The MIC for ampicillin or gentamicin against each isolate was determined for each test to serve as an internal quality control. The MICs of isolates were determined by visual reading and using an EnSpire Multimode Plate Reader 2300 atA600nm.
(§2) Briefly, antimicrobial stock solutions for robenidine and PMBN were prepared at a concentration of 12.8 mg/ml in DMSO. […] A 1 μl aliquot of the first compound from each combination was dispensed along the abscissa (from row A to G) of the 96-well microplate, while the second compound was dispensed along the ordinate (from column 12 to column 3) using an electronic multichannel pipette followed by 89 μl of LB broth. Each well of the plate was inoculated with an aliquot of 10 μl bacterial suspension at a concentration of 1-5 × 10^6 colony forming units (CFU) per ml. Subsequently, the plate was incubated at 37°C for 24 h. The fractional inhibitory concentration index (FICI) described the results of the combinations, and was calculated utilizing the following formula:
(§3) DRI = MIC of drug alone/MIC of drug in combination

[2] = test system: Beta-haemolytic streptococci (n = 20) clinical isolates from otitis externa cases in dogs; experiment: MIC/MBC and checkerboard, canine otitis externa isolates; assay type: cell-based, beta-haemolytic Streptococcus spp.
From the text: (§4) Escherichia coli ATCC 25922, E. coli ATCC 11229, P. aeruginosa ATCC 27853, P. aeruginosa PA01, Pseudomonas putida ATCC 17428, P. mirabilis ATCC 43071, K. pneumoniae ATCC 13883, A. baumannii ATCC 19606, and A. baumannii ATCC 12457 were used for preliminary susceptibility testing and combination experiments. S. aureus ATCC 29213 and S. pneumoniae ATCC 49619 were used as internal quality controls. A variety of bacterial organisms from both human and canine infections were investigated in this study (n = 119 isolates in total). Twenty-eight clinical Acinetobacter spp. isolates were obtained from cases of human skin and soft tissue infections, including 18 Acinetobacter baumannii and 10 A. calcoaceticus, kindly provided by a person (Institute of Medical and Veterinary Science, South Australia). […] Ninety-one clinical isolates were obtained from cases of canine otitis externa, including seven methicillin-susceptible S. pseudintermedius (MSSP), 13 multidrug- and methicillin-resistant S. pseudintermedius (MRSP) ([Saputra et al., 2017]), 20 beta-haemolytic Streptococcus spp., 30 P. aeruginosa (10 of them resistant to gentamicin and 21 P. mirabilis isolates). These isolates were obtained from the bacterial collection of the national survey of antimicrobial resistance in animals conducted in Australia. Swab samples from dogs with signs of otitis externa were collected by veterinarians and submitted to government, private or university diagnostic laboratories throughout Australia. After routine bacterial identification and the removal of confidential information, the participating veterinary diagnostic laboratories submitted the bacteria and their clinical information to PC2 Laboratories, Australian Centre for Antimicrobial Resistance Ecology, School of Animal and Veterinary Sciences, University of Adelaide, Roseworthy Campus, Roseworthy, SA, Australia, for further study. Thus, animal ethics approval was not required in this study. These organisms were identified to species level using biochemical testing and MALDI-TOF mass spectrometry (Bruker, Preston, VIC, Australia).
as §1
(§5) Briefly, 10 μl aliquots from each duplicate well from the MIC assays (starting from the MIC for each compound) were inoculated onto a sheep blood agar (SBA) plate and incubated at 37°C.
as §2, §3

[3] = test system: E. coli ATCC 25922; experiment: microbe, parasite or virus in culture
Experimental: as §1, §2, §3

[4] = test system: A. baumannii ATCC 19606; experiment: microbe, parasite or virus in culture
Experimental: as §1, §2, §3

[5] = test system: A. baumannii ATCC 12457; experiment: microbe, parasite or virus in culture
Experimental: as §1, §2, §3

[6] = test system: K. pneumoniae ATCC 13883; experiment: microbe, parasite or virus in culture
Experimental: as §1, §2, §3

[7] = test system: E. coli ATCC 11229; experiment: microbe, parasite or virus in culture
Experimental: as §1, §2, §3

[8] = test system: A. calcoaceticus (human clinical isolate); experiment: microbe, parasite or virus in culture
Experimental: as §1, §2, §3

[9] = test system: P. putida ATCC 17428; experiment: microbe, parasite or virus in culture
Experimental: as §1, §2, §3

[10] = test system: P. aeruginosa (n = 30) clinical isolates from otitis externa cases in dogs; experiment: MIC/MBC and checkerboard, canine otitis externa isolates; assay type: cell-based, Pseudomonas aeruginosa
From the text: as §4, §1, §5, §2, §3

[11] = test system: S. pseudintermedius (n = 20) clinical isolates from otitis externa cases in dogs; experiment: as above; assay type: cell-based, Staphylococcus pseudintermedius
From the text: as §4, §1, §5, §2, §3

[12] = concentration of the labelled component
[13] = E. coli ATCC 25922, concentration of the labelled component
[14] = A. baumannii ATCC 19606, concentration of the labelled component
[15] = A. baumannii ATCC 12457, concentration of the labelled component
[16] = K. pneumoniae ATCC 13883, concentration of the labelled component
[17] = E. coli ATCC 11229, concentration of the labelled component
[18] = A. calcoaceticus human clinical isolate, concentration of the labelled component
[19] = P. putida ATCC 17428, concentration of the labelled component

N=C(N/N=C/c1ccc(Cl)cc1)N/N=C/c1ccc(Cl)cc1 [ROB, robenidine]
DRI EDTA:ROB ([1]; DRI of the labelled component): 256
MIC ([1]; Pseudomonas aeruginosa, read-out: MIC, single drug): > 256 µg/mL
MIC in combination EDTA:ROB [1, 12]: 1.25 µg/mL
MBC/MIC, ROB in combination with EDTA [2]: 2
MIC50 ([2]; Streptococcus, canine otitis externa, read-out: MIC50, single drug): 8 µg/mL
MIC90 ([2]; Streptococcus, canine otitis externa, read-out: MIC90, single drug): 8 µg/mL
MIC range, single drug ([2]; canine otitis externa): 4 to 16 µg/mL
MIC50, in combination of EDTA and ROB [2, 12]: 2 µg/mL
MIC90, in combination of EDTA and ROB [2, 12]: 4 µg/mL
MIC range, in combination of EDTA and ROB [2, 12]: 1 to 8 µg/mL
MBC/MIC, single drug ([2]; footnote for BS not shown): 1.75
MIC, single drug ([3]; E. coli ATCC 25922): >256 µg/mL
DRI EDTA:ROB ([3]; E. coli ATCC 25922, DRI of the labelled component): 64
MIC in combination EDTA:ROB [3, 13]: 4 µg/mL
MIC in combination PMBN:ROB [3, 13]: 8 µg/mL
MIC ([3]; Escherichia coli, ATCC25922, read-out: MIC, single drug): > 256 µg/mL
DRI EDTA:ROB ([4]; A. baumannii ATCC 19606, DRI of the labelled component): 8
MIC in combination EDTA:ROB [4, 14]: 4 µg/mL
MIC in combination PMBN:ROB [4, 14]: 2 µg/mL
MIC ([4]; Acinetobacter baumannii, ATCC19606, read-out: MIC, single drug): 32 µg/mL
DRI EDTA:ROB ([5]; A. baumannii ATCC 12457, DRI of the labelled component): 32
MIC in combination EDTA:ROB [5, 15]: 2 µg/mL
MIC in combination PMBN:ROB [5, 15]: 2 µg/mL
MIC ([5]; Acinetobacter baumannii, ATCC12457, read-out: MIC, single drug): 64 µg/mL
MIC, single drug ([6]; K. pneumoniae ATCC 13883): >256 µg/mL
DRI EDTA:ROB ([6]; K. pneumoniae ATCC 13883, DRI of the labelled component): 2
MIC in combination EDTA:ROB [6, 16]: 128 µg/mL
MIC in combination PMBN:ROB [6, 16]: 4 µg/mL
MIC ([6]; Klebsiella pneumoniae, ATCC13883, read-out: MIC, single drug): > 256 µg/mL
MIC, single drug ([7]; E. coli ATCC 11229): >256 µg/mL
DRI EDTA:ROB ([7]; E. coli ATCC 11229, DRI of the labelled component): 32
MIC in combination EDTA:ROB [7, 17]: 8 µg/mL
MIC in combination PMBN:ROB [7, 17]: 8 µg/mL
MIC ([7]; Escherichia coli, ATCC11229, read-out: MIC, single drug): > 256 µg/mL
DRI EDTA:ROB ([8]; A. calcoaceticus human clinical isolate, DRI of the labelled component): 32
MIC in combination EDTA:ROB [8, 18]: 0.125 µg/mL
MIC in combination PMBN:ROB [8, 18]: 0.5 µg/mL
MIC ([8]; Acinetobacter calcoaceticus, read-out: MIC, single drug): 4 µg/mL
DRI EDTA:ROB ([9]; P. putida ATCC 17428, DRI of the labelled component): 256
MIC in combination EDTA:ROB [9, 19]: 1.25 µg/mL
MIC in combination PMBN:ROB [9, 19]: 1:1 μg/ml
MIC ([9]; Pseudomonas putida, ATCC17428, read-out: MIC, single drug): > 256 µg/mL
MBC/MIC, ROB in combination with EDTA [10]: ≥2
MIC50 ([10]; Pseudomonas aeruginosa, canine otitis externa, read-out: MIC50, single drug): > 256 µg/mL
MIC90 ([10]; Pseudomonas aeruginosa, canine otitis externa, read-out: MIC90, single drug): > 256 µg/mL
MIC range, single drug ([10]; canine otitis externa): >256 µg/mL
MIC50, in combination of EDTA and ROB [10, 12]: 0.25 µg/mL
MIC90, in combination of EDTA and ROB [10, 12]: 2 µg/mL
MIC range, in combination of EDTA and ROB [10, 12]: 0.125 to 4 µg/mL
MBC/MIC, ROB in combination with EDTA [11]: 2
MIC50 ([11]; Staphylococcus pseudintermedius, canine otitis externa, read-out: MIC50, single drug): 2 µg/mL
MIC90 ([11]; Staphylococcus pseudintermedius, canine otitis externa, read-out: MIC90, single drug): 2 µg/mL
MIC range, single drug ([11]; canine otitis externa): 1 to 4 µg/mL
MIC50, in combination of EDTA and ROB [11, 12]: 1 µg/mL
MIC90, in combination of EDTA and ROB [11, 12]: 1 µg/mL
MIC range, in combination of EDTA and ROB [11, 12]: 0.25 to 2 µg/mL
MBC/MIC, single drug ([11]; footnote for BS not shown): 1.5
